Results published in patent publication US5459077A, “Methods for modelling tertiary structures of biologically active ligands and for modelling agonists and antagonists thereto” (PepMetics, Inc., priority 1993, dated 1995).
Bridge positions count the residues as written; N and C are the ends. Square brackets hold non-standard residues; d marks the D form. Peptide text beside a SMILES is read from it. Sar = CNCC(=O)O

Columns and labels:
[1] = tested on: rat isolated uterus; type: cell-based; conditions: for AGONIST ACTIVITY: relative to Angiotensin II = 100; for agonist / antagonist character in words: footnotes of Table I
Method: ^b = Agonist Activity was measured via a rat isolated uterus bioassay
as described by Matsoukas et al., J. Med. Chem., 31, pp. 1418-1421 (1988)
Results are reported relative to Angiotensin II wherein Angiotensin II =
Analogs of Angiotensin II were synthesized, purified and bioassayed by method described by Matsoukas et al., J. Med. Chem., 31, pp. 1418-1421 (1988). 1,2-propanediol [Pr(OH)2 ] was dried by refluxing over calcium oxide for 8 hours, collected by distillation and stored over a molecular sieve. Water content was estimated by ^1 H NMR or by the Karl Fisher method. Isopropanol (PrOH) was of HPLC grade (Caledon Laboratories Ltd) and was expected to contain less than 1% water. Dimethyl sulfoxide (DMSO) and trifluoroethanol (TFE) were used without further treatment. Aqueous solvents were prepared from distilled water which had been passed through Fisher ion-exchange cartridges. N-acetyl-tyrosine-amide (NAYA) was obtained from Sigma. Sodium dodecylsulfate (SDS) was obtained from BDH biochemicals (specially pure) and was used without further treatment.
[Sar^1 ]Angiotensin II was synthesized by the solid phase technique and purified to homogeneity by reversed-phase HPLC using methods described by Matsoukas et al., J. Med. Chem. 31(7), pp. 1418-1421 (1988). The synthetic peptide gave the required amino acid analysis and appeared as a single product in two thin layer chromatography (TLC) systems. [Sar^1 ]Angiotensin II had 180% of the bioactivity of Angiotensin II in the rat uterus assay which is also described by Matsoukas et al., supra. Since HPLC afforded the trifluoroacetate salt of the peptide, [Sar^1 ]Angiotensin II was neutralized by passage through a column (1.5×3 cm) of carboxymethylcellulose (Whatman CM23) cation exchange resin. The peptide (10 mg) was first applied to the column in 0.01M ammonium acetate at pH 5 (5 ml) and then eluted with 0.5M ammonium acetate at pH 8 (10 ml). The effluent obtained at pH 8 was lyophilized thrice and 5 mg of the product was dissolved in 0.5 ml of DMSO-d6 and two drops of D2 O were added. Argon was bubbled through the sample for 5 minutes before the NMR tube was sealed.

[2] = agonist activity of oxytocin analog (assay not described)

Compound	AGONIST ACTIVITY [1]	agonist / antagonist character in words [1]	other results
CC[C@H](C)[C@H](NC(=O)[C@H](Cc1ccc(O)cc1)NC(=O)[C@@H](NC(=O)[C@H](CCCNC(=N)N)NC(=O)CNC)C(C)C)C(=O)N[C@@H](Cc1ccccc1)C(=O)N1CCC[C@H]1C(=O)N[C@@H](Cc1ccccc1)C(=O)O [C] (H-[Sar]RVYIFPF-OH)	7		
CC[C@H](C)[C@H](NC(=O)[C@H](Cc1ccc(O)cc1)NC(=O)[C@@H](NC(=O)[C@H](CCCNC(=N)N)NC(=O)CNC)C(C)C)C(=O)N[C@@H](Cc1c[nH]cn1)C(=O)N1CCC[C@H]1C(=O)N[C@@H](CC1CCCCC1)C(=O)O [D]	4	Potent receptor antagonist with residual agonist activity	
CC[C@H](C)[C@H](NC(=O)[C@H](Cc1ccc(O)cc1)NC(=O)[C@@H](NC(=O)[C@@H](N)CCCNC(=N)N)C(C)C)C(=O)N[C@@H](Cc1c[nH]cn1)C(=O)N1CCC[C@H]1C(=O)N[C@@H](CC1CCCCC1)C(=O)O [E]	5	Potent receptor antagonist with residual agonist activity	
CC[C@H](C)[C@H](NC(=O)[C@H](Cc1ccc(O)cc1)NC(=O)[C@@H](NC(=O)[C@H](CCCNC(=N)N)NC(=O)CNC)C(C)C)C(=O)N[C@@H](Cc1c[nH]cn1)C(=O)N1CCC[C@H]1C(=O)N[C@@H](Cc1ccccc1)C(N)=O [F]	0.2		
CC[C@H](C)[C@H](NC(=O)[C@H](Cc1ccc(O)cc1)NC(=O)[C@@H](NC(=O)[C@H](CCCNC(=N)N)NC(=O)CNC)C(C)C)C(=O)N[C@@H](C)C(=O)N1CCC[C@H]1C(=O)N[C@@H](Cc1ccccc1)C(=O)O [G] (H-[Sar]RVYIAPF-OH)	less than 0.1		
CC[C@H](C)[C@H](NC(=O)[C@H](Cc1ccc(O)cc1)NC(=O)[C@@H](NC(=O)[C@H](CCCNC(=N)N)NC(=O)CNC)C(C)C)C(=O)N[C@@H](Cc1c[nH]cn1)C(=O)N1CCC[C@@H]1C(=O)N[C@@H](Cc1ccccc1)C(=O)O [I]	less than 0.1		
CC[C@H](C)[C@H](NC(=O)[C@@H]1CCCN1C(=O)[C@H](Cc1c[nH]cn1)NC(=O)[C@@H](NC(=O)[C@H](Cc1ccc(O)cc1)NC(=O)[C@@H](NC(=O)[C@H](CCCNC(=N)N)NC(=O)CNC)C(C)C)[C@@H](C)CC)C(=O)O [J]	less than 0.1	Potent receptor antagonist	
CC[C@H](C)[C@H](NC(=O)[C@H](Cc1ccc(O)cc1)NC(=O)[C@@H](NC(=O)[C@@H](N)CCCNC(=N)N)C(C)C)C(=O)N[C@@H](Cc1c[nH]cn1)C(=O)N1CCC[C@H]1C(=O)N[C@@H](Cc1ccccc1)C(=O)O [K]	10		
CC[C@H](C)[C@H](NC(=O)[C@H](Cc1ccc(O)cc1)NC(=O)[C@@H](NC(=O)[C@H](CCCNC(=N)N)NC(=O)CNC)C(C)C)C(=O)N[C@@H](Cc1c[nH]cn1)C(=O)N1CCC[C@H]1C(=O)N[C@@H](Cc1ccccc1)C(N)=O [Ligand F, [Sar^1 Phe--NH2^8]Angiotensin II]		lack of significant agonist activity	
CC[C@H](C)[C@H](NC(=O)[C@H](Cc1ccc(O)cc1)NC(=O)[C@@H](NC(=O)[C@H](CCCNC(=N)N)NC(=O)CNC)C(C)C)C(=O)N[C@@H](C)C(=O)N1CCC[C@H]1C(=O)N[C@@H](Cc1ccccc1)C(=O)O [Ligand G, [Sar^1 Ala^6]Angiotensin II] (H-[Sar]RVYIAPF-OH)		lack of significant agonist activity	
CC[C@H](C)[C@@H]1NC(=O)[C@H](Cc2ccc(O)cc2)NC(=O)[C@@H](N)CSSC[C@@H](C(=O)N2CCC[C@H]2C(=O)N[C@@H](CC(C)C)C(=O)NCC(N)=O)NC(=O)[C@H](C)NC(=O)[C@H](CCC(N)=O)NC1=O [[Ala^5]] (H-CYIQACPLG-NH2; disulfide 1-6)			agonist activity in words [2]: no agonist activity
CC[C@H](C)[C@H](NC(=O)[C@H](Cc1ccc(O)cc1)NC(=O)[C@@H](NC(=O)[C@H](CCCNC(=N)N)NC(=O)CNC)C(C)C)C(=O)N[C@@H](Cc1c[nH]cn1)C(=O)N1CCC[C@H]1C(=O)N[C@@H](Cc1ccccc1)C(=O)O [[Sar^1]Angiotensin II, reference compound]			bioactivity relative to Angiotensin II ([1]; rat uterus assay): 180%
[Sar^1 Tyr(Me)^4 ]Angiotensin II [reference compound]	100		
[Tyr(Me)^4 ]Angiotensin III [B, reference compound]	27		
